In patent publication US20210121482A1, “WITHANOLIDES FOR THE TREATMENT OF CACHEXIA” (University of Louisville Research Foundation, Inc., priority 2019, published 2021):

Tests used:
[1] = Body composition by DEXA scan; type: in vivo, mice; conditions: 2 and 6 mg/kg
Procedure: Analysis of Body Composition: Body fat and lean mass composition, as well as the bone mineral content and density, excluding head region of interest (ROI), were determined by dual-energy X-ray absorptiometry (DEXA) scan using a mouse densitometer (PIXImus 2; Lunar, Madison, Wis., USA). According to the manufacturer's guidelines to calibrate and validate the performance of the apparatus, a “mouse phantom” provided with the machine was scanned before scanning the first mouse. Animals were […] immediately before assessment by DEXA scan. The mouse was then transferred to the disposable PIXImus measuring tray in the prone position with their head in a loosely fitting nose cone to aid positioning. Upon completion of the DEXA scan, approximately five minutes, the mouse was placed on ice to preserve tissue prior to collection.

[2] = test system: ovarian cancer-induced cachexia; test: Grip strength (Example 1); type: in vivo, mice; conditions: for normalized forelimb grip strength: 2 and 6 mg/kg
Procedure: (§1) Grip Strength Measurements: Before assessment, mice were weighed on a commercially available digital scale. Forepaw and total grip strength of mice were measured using a digital grip strength meter (Columbus Instruments, Columbus, Ohio, USA) and then normalized by total body weight. Before the beginning of the test, the mice were acclimatized for five minutes. The mouse was allowed to grasp the total paw pull-bar assembly, and in a separate experiment the forepaw pull-bar assembly. The mouse was then gently drawn with constant force in a straight line away from the device until the mouse could no longer grasp the bar. Force at time of release was recorded as the peak tension. Each mouse was tested five times with a delay of 20-40 seconds between each testing. The mean peak tension was calculated from the recordings normalized by total body weight.

[3] = test system: inflammatory cytokines and NLRP3 inflammasome markers in TA muscle; test: qPCR of TA muscle; type: in vivo, Mus musculus
Procedure: (§2) Total RNA Extraction and qPCR: Isolation of total RNA from xenografted tumor samples was performed using an RNeasy® Mini Kit (Qiagen Catalog #74104) according to the manufacturer's instructions. Isolation of total RNA from skeletal muscle was performed using an RNeasy® Fibrous Tissue Mini Kit (Qiagen Catalog #74704) according to the manufacturer's instructions. First strand cDNA was synthesized using 1 μg of purified RNA and a commercially available kit (iScript™ cDNA synthesis, Bio-Rad Catalog #170-8891), Quantification of mRNA expression was performed similar to as previously described (Hindi and Kumar, 2016) using the SYBR Green dye method on a StepOnePlus™ system (Applied Biosystems) using gene-specific primers, as shown in Table 1.

[4] = test system: TNFα, IFNγ, IL-6, IL-8, IL-18 in tumor samples; test: Human MAP multiplex assay of tumor samples; type: in vivo; conditions: vs vehicle treated group
From the text: Samples were minced on ice with sterilized scissors.

[5] = test system: ovarian cancer-induced cachexia; test: Grip strength, tumor-free and tumor-bearing mice (Example 2); type: in vivo; conditions: terminal week
Procedure: as §1
Grip Strength Measurements: as in Example 1.

[6] = Change in tumor-free body weight (Example 3); type: in vivo, mice; conditions: tumor-bearing, 2 and 4 mg/kg, vs tumor-bearing vehicle
From the text: Experimental tumors were induced as described in Example 2.
No significant difference in tumor weight between the two doses of WFA was observed (p=0.65).

[7] = test system: heart (cardiomyocytes, collagen deposition); test: Histology and morphometric heart analysis; type: in vivo, mice
From the text: The hearts were isolated, flash frozen in liquid nitrogen, mounted in O.C.T. embedding medium, and then sectioned using a microtome cryostat. To assess tissue morphology, 8 μm thick transverse sections were cut from the mid-ventricle of the heart. These sections were then subjected to H&E staining or Masson's trichrome staining. Images of H&E-stained and Masson's trichrome-stained heart sections were quantified using Fiji software (National Institutes of Health software) to measure myofiber cross-sectional area (CSA) or the degree of collagen deposition, respectively. Cardiac myofiber CSA was calculated by analyzing 100-200 fibers per heart. Collagen deposition was quantified from the Masson's trichrome-stained tissue.

[8] = test system: Tn-I, AT2R and pro-inflammatory cytokines in the heart; test: qPCR of heart; type: in vivo, Mus musculus; conditions: for relative transcript level of AT2R in the heart: compared to control
Procedure: as §2
Isolation and preparation of total RNA was performed as described in Example 1.

[9] = Body and organ weight, A2780 xenograft mice (Example 1); conditions: for BW Week 2 / BW Week 3 / BW Week 1 / Initial BW / Kidney weight normalized / Liver weight normalized / Spleen weight normalized: tumor-bearing; for Initial BW: baseline, before treatment
[10] = 6 mg/kg, vs vehicle treated group
[11] = 2 mg/kg, vs vehicle treated group
[12] = tumor-bearing, both doses, vs tumor-bearing vehicle
[13] = WFA 2 mg/kg IP every three days
[14] = WFA 6 mg/kg IP every three days

SMILES: CC1=C(CO)C(=O)O[C@@H]([C@@H](C)[C@H]2CC[C@H]3[C@@H]4C[C@H]5O[C@]56[C@@H](O)C=CC(=O)[C@]6(C)[C@H]4CC[C@]23C)C1 [WFA, (4β,5β,6β,22R)-4,27-Dihydroxy-5,6:22,26-diepoxyergosta-2,24-diene-1,26-dione]
- bone mineral density or content [1]: No significant differences
- proportion of lean tissue to body weight ([1]; all tumor-bearing groups vs control): significant increase in the proportion of lean tissue to body weight
- proportion of adipose tissue to whole body weight ([1]; vs vehicle treated group): attenuation of adipose tissue
- normalized total limb grip strength ([2]; 2 mg/kg, vs vehicle treated group, weeks 1-3): significant protective effect on total limb grip strength
- normalized total limb grip strength [2, 10]: initially protective, but the grip strength eventually deteriorated to the same extent as the vehicle treated group
- normalized forelimb grip strength ([2]; vs control group, significant at week 3): reduction in normalized grip strength
- normalized forelimb grip strength ([2]; vs vehicle treated group, significant by week 2): attenuation of normalized forelimb grip strength
- relative mRNA levels of TNFα, IFNγ, IL-6, MIP-2 in TA muscle [3, 11]: significantly reduced
- transcript levels of HO-1 in TA muscle [3, 11]: increased compared to the vehicle treated group
- transcript levels of NLRP3, CASP1, IL-1β, IL-18 in TA muscle [3, 11]: significant reduction in all tested NLRP3 inflammasome transcript levels
- relative mRNA levels of TNFα, IFNγ, IL-6, MIP-2 in TA muscle ([3]; 6 mg/kg, vs control and WFA 2 mg/kg groups): robust increase in the expression of select proinflammatory cytokines
- transcript levels of CASP1 and IL-1β in TA muscle ([3]; 6 mg/kg, vs control group): significantly increased
- transcript levels of HO-1 in TA muscle ([3]; 6 mg/kg, vs control or vehicle treated groups): no significant changes in HO-1 expression
- relative mRNA levels of NLRP3 and IL-18 in TA muscle [3, 10]: significantly reduced
- relative transcript levels of IFNγ and MIP-2 in TA muscle [3, 10]: significantly reduced
- relative transcript levels of TNFα and IL-6 in TA muscle ([3]; 6 mg/kg, vs vehicle treated group (p=0.09 and <0.0001)): increased
- cytokine levels of IL-18 in tumor (multiplex) ([4]; 2 and 6 mg/kg): significant reduction in the cytokine levels of IL-18
- levels of TNFα, IFNγ, IL-6, IL-8 in tumor (multiplex) ([4]; high dose (6 mg/kg)): mixed result of up- and downregulation of proinflammatory cytokines
- levels of TNFα, IFNγ, IL-6, IL-8 in tumor (multiplex) ([4]; low dose (2 mg/kg)): significantly reduced the expression of all proinflammatory cytokines tested
- forelimb and total grip strengths ([5]; tumor-bearing mice, 2 and 4 mg/kg, vs tumor-bearing vehicle): significantly increased compared to the tumor-bearing vehicle-treated
- total grip strength ([5]; tumor-free mice, 4 mg/kg, vs tumor-free vehicle): significantly improved the total grip strength of the tumor-free mice
- forelimb grip strength ([5]; tumor-free mice, 2 and 4 mg/kg, vs tumor-free vehicle): significantly improved the forelimb grip strength of tumor-free mice
- absolute change in tumor-free body weight [6]: significant preservation of body weight loss
- cross-sectional area (CSA) of cardiomyocytes ([7]; tumor-bearing WFA-treated groups vs tumor-bearing vehicle): partial recovery of the CSA of cardiomyocytes
- reduction in heart weight (normalized by tibial length) [7, 12]: significantly blunted
- percentage of connective tissue in heart ([7]; tumor-bearing, either dose, vs tumor-bearing vehicle): significantly decreased
- collagen deposition / connective tissue in heart ([7]; tumor-free WFA-treated groups vs tumor-free vehicle): comparable amount of connective tissue
- heart weight ([7]; tumor-free animals): did not have any effect on heart weight in tumor-free animals
- relative transcript levels of TNFα, IL-6, MIP-2, IFNγ in the heart ([8]; tumor-bearing WFA-treated groups): significantly reduced in the WFA-treated groups
- transcript levels of IFNγ in the heart ([8]; tumor-bearing WFA-treated groups, normalized to tumor-bearing vehicle): significantly reduced in the WFA-treated groups
- relative transcript level of AT2R in the heart ([8]; tumor-bearing, WFA 2 mg/kg): 3.5±1.8 fold
- relative transcript level of AT2R in the heart ([8]; tumor-bearing, WFA 4 mg/kg): 5.2±3.2 fold
- reduction in relative transcript levels of Troponin-I (Tn-I) in heart [8, 12]: significantly blunted
- body weight fold change ([9]; 2 and 6 mg/kg, at termination of study, all groups compared): No statistically significant difference between the groups
- BW Week 2 [9, 13]: 20.43 ± 2.43 g
- BW Week 3 [9, 13]: 22.68 ± 2.53 g
- BW Week 1 ([9]; WFA 2 mg/kg group): 19.98 ± 2.33 g
- Initial BW ([9]; WFA 2 mg/kg group): 19.14 ± 1.50 g
- Kidney weight normalized ([9]; WFA 2 mg/kg): 4.95 ± 0.79 mg/g
- Liver weight normalized ([9]; WFA 2 mg/kg): 47.16 ± 15.88 mg/g
- Spleen weight normalized ([9]; WFA 2 mg/kg): 2.20 ± 1.74 mg/g
- BW Week 2 [9, 14]: 21.37 ± 1.32 g
- BW Week 3 [9, 14]: 23.57 ± 1.23 g
- BW Week 1 ([9]; WFA 6 mg/kg group): 20.70 ± 1.35 g
- Initial BW ([9]; WFA 6 mg/kg group): 19.60 ± 0.76 g
- Kidney weight normalized ([9]; WFA 6 mg/kg): 5.45 ± 0.49 mg/g
- Liver weight normalized ([9]; WFA 6 mg/kg): 41.18 ± 3.60 mg/g
- Spleen weight normalized ([9]; WFA 6 mg/kg): 2.78 ± 1.45 mg/g
